According to PubChem BioAssay AID1963847 (Molecular Pharmacology Branch, DTP, NCI, 2024):

Test system: 415267-285-R-J2-PDC complex spheroid viability
Assay: Anticancer human tumor 415267-285-R-J2-PDC patient-derived breast carcinoma cell line growth inhibition [POLQ]
Conditions: for IC50: curve of first compound; for viability, T/C: stronger effect = lower value
Summary of the method: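 Growth inhibition in 3D: complex spheroids (tumor PDC, HUVEC, MSC) treated with POLQ inhibitor combinations; where Cmax unknown, highest tested concentration 10 microM, except SN-38 at 1 microM.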

[1] = second compound 0.0316 µM, first compound 0.0316 µM
[2] = second compound 0.0316 µM, first compound 0.1 µM
[3] = second compound 0.0316 µM, first compound 0.316 µM
[4] = second compound 0.0316 µM, first compound 1 µM
[5] = second compound 0.0316 µM, first compound 3.16 µM
[6] = second compound 0.0316 µM, first compound 10 µM
[7] = second compound 0.1 µM, first compound 0.0316 µM
[8] = second compound 0.1 µM, first compound 0.1 µM
[9] = second compound 0.1 µM, first compound 0.316 µM
[10] = second compound 0.1 µM, first compound 1 µM
[11] = second compound 0.1 µM, first compound 3.16 µM
[12] = second compound 0.1 µM, first compound 10 µM
[13] = second compound 0.316 µM, first compound 0.0316 µM
[14] = second compound 0.316 µM, first compound 0.1 µM
[15] = second compound 0.316 µM, first compound 0.316 µM
[16] = second compound 0.316 µM, first compound 1 µM
[17] = second compound 0.316 µM, first compound 3.16 µM
[18] = second compound 0.316 µM, first compound 10 µM
[19] = second compound 1 µM, first compound 0.0316 µM
[20] = second compound 1 µM, first compound 0.1 µM
[21] = second compound 1 µM, first compound 0.316 µM
[22] = second compound 1 µM, first compound 1 µM
[23] = second compound 1 µM, first compound 3.16 µM
[24] = second compound 1 µM, first compound 10 µM
[25] = second compound 3.16 µM, first compound 0.0316 µM
[26] = second compound 3.16 µM, first compound 0.1 µM
[27] = second compound 3.16 µM, first compound 0.316 µM
[28] = second compound 3.16 µM, first compound 1 µM
[29] = second compound 3.16 µM, first compound 3.16 µM
[30] = second compound 3.16 µM, first compound 10 µM
[31] = second compound 10 µM, first compound 0.0316 µM
[32] = second compound 10 µM, first compound 0.1 µM
[33] = second compound 10 µM, first compound 0.316 µM
[34] = second compound 10 µM, first compound 1 µM
[35] = second compound 10 µM, first compound 3.16 µM
[36] = second compound 10 µM, first compound 10 µM
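Further: spheroids exposed to compounds for one week before readout.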
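Wherever viability, T/C is given: luminescence used as stand-in measure of viable cells; 100% = DMSO vehicle control viability.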

In the case of `CC(C)n1c(=O)n(C)c2cnc3cc(F)c(-c4ccc(OCCCN5CCCCC5)nc4)cc3c21` + COC1C(OC(N)=O)C(O)C(Oc2ccc3c(O)c(NC(=O)c4ccc(O)c(CC=C(C)C)c4)c(=O)oc3c2C)OC1(C)C, the IC50 (second compound 0.0316 µM) is reported as > 10 µM, the IC50 (second compound 0.1 µM) is reported as > 10 µM and the IC50 (second compound 0.316 µM) is reported as > 10 µM. For the same molecule, the IC50 (second compound 1 µM) was > 10 µM, the IC50 (second compound 3.16 µM) was > 10 µM and the IC50 (second compound 10 µM) was > 10 µM. It also gave a viability, T/C [1] of 97.5%, a viability, T/C [2] of 97.6% and a viability, T/C [3] of 95.6%. The viability, T/C [4] was 94.1%, the viability, T/C [5] was 101% and the viability, T/C [6] was 99.2%. It also gave a viability, T/C [7] of 89.8%, a viability, T/C [8] of 93.6% and a viability, T/C [9] of 107%. For the same molecule, the viability, T/C [10] was 104%, the viability, T/C [11] was 103% and the viability, T/C [12] was 95.3%. The viability, T/C [13] was 96.8%, the viability, T/C [14] was 95.8% and the viability, T/C [15] was 104%. For the same molecule, the viability, T/C [16] was 110%, the viability, T/C [17] was 112% and the viability, T/C [18] was 89.5%. It also gave a viability, T/C [19] of 99.6%, a viability, T/C [20] of 103% and a viability, T/C [21] of 91.2%. The viability, T/C [22] was 102%, the viability, T/C [23] was 95.5% and the viability, T/C [24] was 97%. It also gave a viability, T/C [25] of 107%, a viability, T/C [26] of 91.4% and a viability, T/C [27] of 89%. For the same molecule, the viability, T/C [28] was 98.2%, the viability, T/C [29] was 107% and the viability, T/C [30] was 98.8%. For the same molecule, the viability, T/C [31] was 101%, the viability, T/C [32] was 99.5% and the viability, T/C [33] was 93.5%. For the same molecule, the viability, T/C [34] was 114%, the viability, T/C [35] was 98.4% and the viability, T/C [36] was 82.5%.
For `CCCS(=O)(=O)Nc1ccc(F)c(C(=O)c2c[nH]c3ncc(-c4ccc(Cl)cc4)cc23)c1F` + Cc1cccc(N(C)C(=O)C2C(O)CCN2c2nc(C)cc(C(F)(F)F)c2C#N)c1, the IC50 (second compound 0.0316 µM) was > 10 µM, the IC50 (second compound 0.1 µM) was > 10 µM and the IC50 (second compound 0.316 µM) was > 10 µM. For the same molecule, the IC50 (second compound 1 µM) was > 10 µM, the IC50 (second compound 3.16 µM) was > 10 µM and the IC50 (second compound 10 µM) was > 10 µM. For the same molecule, the viability, T/C [1] was 98.8%, the viability, T/C [2] was 111% and the viability, T/C [3] was 99%. The viability, T/C [4] was 93.8%, the viability, T/C [5] was 86.3% and the viability, T/C [6] was 91.2%. It also gave a viability, T/C [7] of 104%, a viability, T/C [8] of 93.5% and a viability, T/C [9] of 93.4%. For the same molecule, the viability, T/C [10] was 102%, the viability, T/C [11] was 96.5% and the viability, T/C [12] was 88.9%. The viability, T/C [13] was 105%, the viability, T/C [14] was 99.4% and the viability, T/C [15] was 90.3%. For the same molecule, the viability, T/C [16] was 102%, the viability, T/C [17] was 97.7% and the viability, T/C [18] was 86.7%. The viability, T/C [19] was 105%, the viability, T/C [20] was 101% and the viability, T/C [21] was 102%. It also gave a viability, T/C [22] of 99.9%, a viability, T/C [23] of 107% and a viability, T/C [24] of 79.3%. For the same molecule, the viability, T/C [25] was 111%, the viability, T/C [26] was 103% and the viability, T/C [27] was 104%. For the same molecule, the viability, T/C [28] was 104%, the viability, T/C [29] was 93.7% and the viability, T/C [30] was 91.1%. For the same molecule, the viability, T/C [31] was 96.4%, the viability, T/C [32] was 96% and the viability, T/C [33] was 109%. For the same molecule, the viability, T/C [34] was 111%, the viability, T/C [35] was 94% and the viability, T/C [36] was 73.8%.
For `COc1cc2cc(C(=O)CCC(=O)O)sc2cc1OC` + Nc1ccc(C#CCN(C(=O)Cc2ncc(C(F)(F)F)cc2C(F)(F)F)c2ccc(F)cc2)nn1, the IC50 (second compound 0.0316 µM) was > 10 µM, the IC50 (second compound 0.1 µM) was > 10 µM and the IC50 (second compound 0.316 µM) was > 10 µM. For the same molecule, the IC50 (second compound 1 µM) was > 10 µM, the IC50 (second compound 3.16 µM) was > 10 µM and the IC50 (second compound 10 µM) was > 10 µM. For the same molecule, the viability, T/C [1] was 108%, the viability, T/C [2] was 95.4% and the viability, T/C [3] was 93.7%. For the same molecule, the viability, T/C [4] was 97.3%, the viability, T/C [5] was 93.8% and the viability, T/C [6] was 97.3%. It also gave a viability, T/C [7] of 111%, a viability, T/C [8] of 105% and a viability, T/C [9] of 94.2%. For the same molecule, the viability, T/C [10] was 98.2%, the viability, T/C [11] was 92.5% and the viability, T/C [12] was 95.1%. It also gave a viability, T/C [13] of 111%, a viability, T/C [14] of 103% and a viability, T/C [15] of 91.8%. For the same molecule, the viability, T/C [16] was 89.9%, the viability, T/C [17] was 98.9% and the viability, T/C [18] was 85.9%. For the same molecule, the viability, T/C [19] was 103%, the viability, T/C [20] was 88.9% and the viability, T/C [21] was 96.6%. The viability, T/C [22] was 102%, the viability, T/C [23] was 96.5% and the viability, T/C [24] was 91.2%. It also gave a viability, T/C [25] of 105%, a viability, T/C [26] of 92% and a viability, T/C [27] of 101%. For the same molecule, the viability, T/C [28] was 98.9%, the viability, T/C [29] was 94.3% and the viability, T/C [30] was 109%. For the same molecule, the viability, T/C [31] was 101%, the viability, T/C [32] was 97.4% and the viability, T/C [33] was 100%. The viability, T/C [34] was 106%, the viability, T/C [35] was 97.9% and the viability, T/C [36] was 96.5%.
With `CC(=O)O[C@H]1C(=O)[C@@]2(C)[C@H]([C@H](OC(=O)c3ccccc3)[C@]3(O)C[C@H](OC(=O)[C@H](O)[C@@H](NC(=O)c4ccccc4)c4ccccc4)C(C)=C1C3(C)C)[C@]1(OC(C)=O)CO[C@@H]1C[C@@H]2O` + Nc1ccc(C#CCN(C(=O)Cc2ncc(C(F)(F)F)cc2C(F)(F)F)c2ccc(F)cc2)nn1 the IC50 (second compound 0.0316 µM) was < 0.00949 µM, the IC50 (second compound 0.1 µM) was < 0.00949 µM and the IC50 (second compound 0.316 µM) was < 0.00949 µM. For the same molecule, the IC50 (second compound 1 µM) was < 0.00949 µM, the IC50 (second compound 3.16 µM) was < 0.00949 µM and the IC50 (second compound 10 µM) was < 0.00949 µM. The viability, T/C (second compound 0.0316 µM, first compound 0.00949 µM) was 16.4%, the viability, T/C (second compound 0.0316 µM, first compound 0.03 µM) was 11.2% and the viability, T/C (second compound 0.0316 µM, first compound 0.0949 µM) was 7.8%. It also gave a viability, T/C (second compound 0.0316 µM, first compound 0.3 µM) of 12.3%, a viability, T/C (second compound 0.0316 µM, first compound 0.949 µM) of 7.65% and a viability, T/C (second compound 0.0316 µM, first compound 3 µM) of 9.67%. For the same molecule, the viability, T/C (second compound 0.1 µM, first compound 0.00949 µM) was 28.2%, the viability, T/C (second compound 0.1 µM, first compound 0.03 µM) was 10.1% and the viability, T/C (second compound 0.1 µM, first compound 0.0949 µM) was 7.84%. The viability, T/C (second compound 0.1 µM, first compound 0.3 µM) was 8.82%, the viability, T/C (second compound 0.1 µM, first compound 0.949 µM) was 5.94% and the viability, T/C (second compound 0.1 µM, first compound 3 µM) was 7.04%. For the same molecule, the viability, T/C (second compound 0.316 µM, first compound 0.00949 µM) was 25.4%, the viability, T/C (second compound 0.316 µM, first compound 0.03 µM) was 10.4% and the viability, T/C (second compound 0.316 µM, first compound 0.0949 µM) was 8.11%. The viability, T/C (second compound 0.316 µM, first compound 0.3 µM) was 6.83%, the viability, T/C (second compound 0.316 µM, first compound 0.949 µM) was 6.61% and the viability, T/C (second compound 0.316 µM, first compound 3 µM) was 9.16%. It also gave a viability, T/C (second compound 1 µM, first compound 0.00949 µM) of 17.4%, a viability, T/C (second compound 1 µM, first compound 0.03 µM) of 9.17% and a viability, T/C (second compound 1 µM, first compound 0.0949 µM) of 6.64%. It also gave a viability, T/C (second compound 1 µM, first compound 0.3 µM) of 8.77%, a viability, T/C (second compound 1 µM, first compound 0.949 µM) of 7.65% and a viability, T/C (second compound 1 µM, first compound 3 µM) of 7.96%. For the same molecule, the viability, T/C (second compound 3.16 µM, first compound 0.00949 µM) was 14.3%, the viability, T/C (second compound 3.16 µM, first compound 0.03 µM) was 10% and the viability, T/C (second compound 3.16 µM, first compound 0.0949 µM) was 8.75%. It also gave a viability, T/C (second compound 3.16 µM, first compound 0.3 µM) of 6.53%, a viability, T/C (second compound 3.16 µM, first compound 0.949 µM) of 7.79% and a viability, T/C (second compound 3.16 µM, first compound 3 µM) of 7.72%. It also gave a viability, T/C (second compound 10 µM, first compound 0.00949 µM) of 13.3%, a viability, T/C (second compound 10 µM, first compound 0.03 µM) of 9.57% and a viability, T/C (second compound 10 µM, first compound 0.0949 µM) of 8.39%. For the same molecule, the viability, T/C (second compound 10 µM, first compound 0.3 µM) was 9.61%, the viability, T/C (second compound 10 µM, first compound 0.949 µM) was 8.58% and the viability, T/C (second compound 10 µM, first compound 3 µM) was 8.25%.
